The values that follow come from paper PMC11504489, “Potent Biological Activity of Fluorinated Derivatives of 2-Deoxy-D-Glucose in a Glioblastoma Model” (Biomedicines, 2024).

SMILES strings stand for the structures.

The target of this assay is T1, hexokinase II (HKII) (Homo sapiens, UniProt P52789).
T1 construct: gene HK2; recombinant HKII expressed in E. coli, first 16 aa from the N-terminal removed
T1 sequence (P52789 17-917): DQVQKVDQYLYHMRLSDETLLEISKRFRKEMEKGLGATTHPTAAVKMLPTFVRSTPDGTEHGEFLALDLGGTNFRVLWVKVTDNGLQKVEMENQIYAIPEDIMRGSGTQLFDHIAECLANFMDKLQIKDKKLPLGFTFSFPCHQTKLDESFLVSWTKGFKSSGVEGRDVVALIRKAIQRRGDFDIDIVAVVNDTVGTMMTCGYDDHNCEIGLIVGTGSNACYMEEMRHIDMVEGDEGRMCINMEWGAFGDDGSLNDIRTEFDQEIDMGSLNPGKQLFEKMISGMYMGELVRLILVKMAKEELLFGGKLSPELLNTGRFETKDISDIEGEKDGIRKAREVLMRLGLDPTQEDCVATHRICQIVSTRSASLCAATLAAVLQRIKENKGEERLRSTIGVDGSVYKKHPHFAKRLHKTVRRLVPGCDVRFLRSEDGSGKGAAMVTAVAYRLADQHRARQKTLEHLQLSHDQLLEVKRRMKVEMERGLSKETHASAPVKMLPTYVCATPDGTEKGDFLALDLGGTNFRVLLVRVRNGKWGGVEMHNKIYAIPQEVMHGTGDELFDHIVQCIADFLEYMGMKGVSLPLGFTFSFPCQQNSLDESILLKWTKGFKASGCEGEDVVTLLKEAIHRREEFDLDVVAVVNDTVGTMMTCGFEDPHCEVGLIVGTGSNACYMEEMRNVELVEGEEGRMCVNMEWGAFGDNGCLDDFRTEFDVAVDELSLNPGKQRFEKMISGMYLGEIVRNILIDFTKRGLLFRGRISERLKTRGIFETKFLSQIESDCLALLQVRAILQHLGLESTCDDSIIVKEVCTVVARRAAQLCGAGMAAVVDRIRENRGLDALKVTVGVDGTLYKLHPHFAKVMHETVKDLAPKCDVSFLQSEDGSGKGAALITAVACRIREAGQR
Description: […] NMR CPMG transverse relaxation titration. In kind it is binding. The settings on record: read-out: Kα [mol m^-3].

In the case of `OC[C@H]1OC(O)C(F)(F)[C@@H](O)[C@@H]1O` (mixture of isomers) [2,2-diFG, 2-deoxy-2,2-difluoro-D-glucopyranose], the Kd worked out at 960 ± 200 µM.
